From patent US20060216699A1, “Peptides for the detection of HIV-1 group O” (priority 1998, published 2006)

Key:
[1] = system: type B sample; assay: ELISA: biotinylated peptide bound to streptavidin-coated wells, type B sample; type: binding, human; details: undiluted
[2] = system: antibodies to HIV-1 group O; assay: Chemiluminescent ELISA: serially diluted peptide on streptavidin-coated wells, serum ODS007b 1:60, anti-human IgG:HRP, luminol; type: binding; details: for luminescent units: serum ODS007b 1:60
Procedure: To compare the performance of peptide 147 to another genuine group O sequence, the peptide corresponding to the ANT70 sequence was synthesized (peptide 80). Peptides 147 and 80 were dissolved at the same concentration, serially diluted, and bound to streptavidin-coated wells. A 1:60 dilution of serum sample ODS007b (see Table 3) was added to all wells and incubated. After washing, an anti-human IgG:HRP conjugate was added, incubated, and the wells again thoroughly washed. In this case, a chemiluminescent substrate was used, consisting of luminol and a peracid salt. The emitted light was quantified using a luminometer. The results are tabulated in Table 4 and shown graphically in FIG. 2.

[3] = system: anti-HIV-1 group O antibodies present in human serum; assay: ELISA: biotinylated peptide bound to streptavidin-coated wells, HIV-1 group O sera, anti-IgG:HRP, OPD, absorbance at 492 nm; type: binding
Procedure: Serological recognition of the peptide by HIV-1 group O sera. Peptide 147 was evaluated for its ability to be recognized by anti-HIV-1 group O antibodies present in human serum from infected individuals. All group O samples were confirmed to be positive for HIV-1 group O by reverse transcriptase-polymerase chain reaction (RT-PCR) amplification of viral gp41 sequences using O-specific primers. The identity of the PCR product was further confirmed by DNA sequencing.
This technique involves binding of the antigen to a solid phase, bringing the fluid to be tested into contact with the antigen-coated solid phase, washing away any unbound material, and then detecting bound antibodies with an enzyme-labeled second antibody. The presence of the enzyme is detected using a chromogenic or luminogenic substrate.
To evaluate biotinylated peptide 147, wells of a microtiter plate were coated with streptavidin at a concentration of 1 μg/ml in 50 mM carbonate buffer, pH 9.6 (200 μl/well). Excess unbound streptavidin was removed by washing several times with phosphate buffered saline (PBS). Biotinylated peptide 147 was dissolved in a minimal volume of pure DMSO and then diluted into PBS to a concentration of 0.5 μg/ml. Two hundred microliters of the peptide solution were added to each well and the peptide allowed to bind to the streptavidin. After removing unbound peptide by washing with PBS, serum samples obtained from HIV-1 group O-infected patients were added to the wells of the plate. After a suitable incubation period, unbound material was removed by washing with PBS. A dilution of an anti-IgG:horse radish peroxidase (HRP) conjugate was added to each well and incubated for 30 minutes at 37° C. Unbound material was removed by extensive washing. Substrate solution containing O-phenylenediamine (OPD) and H2O2 was added to each well and the plate was further incubated, protected from light. After a 30 minute incubation period at room temperature, the reaction was terminated by the addition of 50 μl of 4N H2SO4 and the absorbance of each well was read at 492 nm.
Peptide 147 was first tested by using undiluted (10 μl) serum samples. The sample measurements are in optical density (OD).
A panel of serially diluted group O sera was tested with peptide 147 in order to evaluate the sensitivity of an ELISA using this antigen. Streptavidin-coated plates were prepared and loaded with peptide 147 as before, and tested using the dilutional panels. In addition, in order to compare the performance of […] peptide 147 with that of a genuine group O sequence, a second peptide was synthesized (peptide 146) corresponding to the sequence of the DUR variant.
These peptides cover precisely the same region of gp41, and were tested in parallel.

NQQRLNSWGCKGRIICYTSARWH (HIV Consensus) [peptide 147]
OD492 [1]: 1.926 OD
detection of antibodies to HIV-1 group O compared with a naturally occurring isolate (peptide 80) ([2]; in words): comparable to that of a naturally occurring isolate
luminescent units ([2]; peptide 0.020 ug/ml): 0.619 luminescent units
luminescent units ([2]; peptide 0.039 ug/ml): 0.504 luminescent units
luminescent units ([2]; peptide 0.078 ug/ml): 0.740 luminescent units
luminescent units ([2]; peptide 0.156 ug/ml): 1.199 luminescent units
luminescent units ([2]; peptide 0.313 ug/ml): 2.090 luminescent units
luminescent units ([2]; peptide 0.625 ug/ml): 3.093 luminescent units
luminescent units ([2]; peptide 1.250 ug/ml): 2.885 luminescent units
luminescent units ([2]; peptide 2.500 ug/ml): 2.374 luminescent units
performance compared with a genuine group O sequence (peptide 146) ([3]; a number of the dilutional panels, in words): equaled or significantly exceeded that of a genuine group O sequence
binding of antibodies against the group O gp41 immunodominant region ([3]; highly diluted samples, in words): suitable antigen capable of binding antibodies against the group O gp41 immunodominant region
OD492 ([3]; negative control (uninfected blood donor), undiluted sample (10 μl)): 0.056 OD
OD492 ([3]; panel OP1, sample OP1A, dilution of original sample 2): 2.500 OD
OD492 ([3]; panel OP1, sample OP1B, dilution of original sample 4): 2.298 OD
OD492 ([3]; panel OP1, sample OP1C, dilution of original sample 8): 2.465 OD
OD492 ([3]; panel OP1, sample OP1D, dilution of original sample 16): 2.387 OD
OD492 ([3]; panel OP1, sample OP1E, dilution of original sample 32): 2.013 OD
OD492 ([3]; panel OP1, sample OP1F, dilution of original sample 64): 1.448 OD
OD492 ([3]; panel OP1, sample OP1G, dilution of original sample 128): 1.150 OD
OD492 ([3]; panel OP1, sample OP1H, dilution of original sample 256): 0.927 OD
OD492 ([3]; panel OP1, sample OP1I, dilution of original sample 512): 0.504 OD
OD492 ([3]; panel OP1, sample OP1J, dilution of original sample 1024): 0.053 OD
OD492 ([3]; panel OP2, sample OP2A, dilution of original sample 5): 2.236 OD
OD492 ([3]; panel OP2, sample OP2B, dilution of original sample 10): 2.320 OD
OD492 ([3]; panel OP2, sample OP2C, dilution of original sample 20): 2.157 OD
OD492 ([3]; panel OP2, sample OP2D, dilution of original sample 40): 1.844 OD
OD492 ([3]; panel OP2, sample OP2E, dilution of original sample 80): 1.061 OD
OD492 ([3]; panel OP2, sample OP2F, dilution of original sample 160): 0.689 OD
OD492 ([3]; panel OP2, sample OP2G, dilution of original sample 320): 0.327 OD
OD492 ([3]; panel OP2, sample OP2H, dilution of original sample 640): 0.184 OD
OD492 ([3]; panel OP2, sample OP2I, dilution of original sample 1280): 0.179 OD
OD492 ([3]; panel OP2, sample OP2J, dilution of original sample 2560): 0.090 OD
OD492 ([3]; panel OP3, sample OP3A, dilution of original sample 300): 0.229 OD
OD492 ([3]; panel OP3, sample OP3B, dilution of original sample 600): 0.373 OD
OD492 ([3]; panel OP3, sample OP3C, dilution of original sample 1200): 0.211 OD
OD492 ([3]; panel OP4, sample OP4A, dilution of original sample 100): 0.774 OD
OD492 ([3]; panel OP4, sample OP4B, dilution of original sample 200): 0.608 OD
OD492 ([3]; panel OP4, sample OP4C, dilution of original sample 400): 0.398 OD
OD492 ([3]; panel OP4, sample OP4D, dilution of original sample 800): 0.277 OD
OD492 ([3]; panel OP4, sample OP4E, dilution of original sample 1600): 0.040 OD
OD492 ([3]; panel OP5, sample OP5A, dilution of original sample 100): 1.624 OD
OD492 ([3]; panel OP5, sample OP5B, dilution of original sample 200): 1.027 OD
OD492 ([3]; panel OP5, sample OP5C, dilution of original sample 400): 0.225 OD
OD492 ([3]; panel OP5, sample OP5D, dilution of original sample 800): 0.302 OD
OD492 ([3]; panel OP6, sample OP6A, dilution of original sample 50): 0.667 OD
OD492 ([3]; panel OP7-2, sample OP7-2A, dilution of original sample 100): 2.081 OD
OD492 ([3]; panel OP7-2, sample OP7-2B, dilution of original sample 200): 1.817 OD
OD492 ([3]; panel OP7-2, sample OP7-2C, dilution of original sample 400): 1.346 OD
OD492 ([3]; panel OP7-2, sample OP7-2D, dilution of original sample 800): 0.847 OD
OD492 ([3]; sample ODS001, undiluted): 2.500 OD
OD492 ([3]; sample ODS002, undiluted): 2.500 OD
OD492 ([3]; sample ODS003, undiluted): 2.500 OD
OD492 ([3]; sample ODS004, undiluted): 2.500 OD
OD492 ([3]; sample ODS006, undiluted): 2.500 OD
OD492 ([3]; sample ODS007a, undiluted): 2.500 OD
OD492 ([3]; sample ODS007b, undiluted): 2.500 OD
OD492 ([3]; sample ODS009, undiluted): 2.500 OD
recognition by antibodies produced in response to an HIV-1 group O infection ([3]; undiluted specimens, in words): capable of recognizing peptide 147
